US10377741B2, “Substituted heteroaryl aldehyde compounds and methods for their use in increasing tissue oxygenation” (Global Blood Therapeutics, Inc., priority 2011, dated 2019)

What was measured:
hemoglobin = hemoglobin (Homo sapiens, UniProt P68871+P69905); settings: in vitro and in vivo; cited from earlier work
human HbS = settings: transgenic mice producing human HbS, cited from earlier work
whole blood = assay: Whole blood assay: oxygen equilibrium curves of whole blood; assay type: cell-based, human (homozygous sickle cell patients); settings: compound at 1000 μM; hematocrit 20%, 1 hour at 37° C.
How it was run: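 Homozygous sickle cell patient blood, hematocrit 20% in autologous plasma, incubated 1 h at 37° C with or without compound (1000 μM unless noted). Diluted into Hemox buffer pH 7.4, oxygenated then deoxygenated with nitrogen; OEC fitted to Hill model for p50, reported as delta p50%.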

purified HBS = target: T1, purified HBS (Homo sapiens, UniProt P68871+P69905, E7V); assay: Polymerization assay (delay time of HbS polymerization); assay type: biochemical, human (homozygous sickle cell patients); settings: percent delay (% DT) vs HBS alone; 50 μM purified HBS, 1.8 M potassium phosphate pH 7.4
T1 construct: HbS was purified by a modified procedure; from tissue; host or cells: blood of homozygous sickle cell patients (CHORI); for the polymerization assay purified by the CRO VIRUSYS
Protocol: Polymerization assays are carried out in vitro using purified HBS exchanged into 1.8 M potassium phosphate buffer at pH 7.4. Using a slightly modified protocol (Antonini and Brunori, 1971), HbS is purified by the CRO VIRUSYS, from blood obtained from homozygous sickle cell patients through the Hemoglobinopathy Center at Children's Hospital Oakland Research Institute (CHORI) with Institutional Review Board approval. Compounds are prepared in 100% DMSO and a desired amount is added to 50 μM of purified HBS at a final DMSO concentration of 0.3%. Final potassium phosphate concentration is adjusted to 1.8 M using a combination of 2.5 M potassium phosphate stock solution and water at pH 7.4. The reaction mixture is incubated for an hour at 37° C. and then transferred into a 24-well plate for deoxygenation in a glove box containing 99.5% nitrogen and 0.5% oxygen. The 24-well plate is not covered and incubated at 4° C. on a plate cooler inside the glove box for one and a half hours. Fifty μL of the reaction mixture is transferred into a 96-well plate and the absorbance at 700 nm is measured every minute for one hour at 37° C. in a plate reader located inside the glove box. A plot of the absorbance against time is fitted using a Boltzman sigmoidal fit and the delay time (from zero to time at half Vmax) is measured. To compare and rank compounds, delay times are expressed as percent delay (% DT), which is defined as the difference in delay times for HBS/compound and HBS alone multiplied by 100 and divided by the delay time for HBS alone.
Compounds listed below have been tested in the polymerization assay. Activity ranges are defined by the number of dagger (†) symbols indicated. † denotes activity ≥40% but ≤80%; †† denotes activity >80% but ≤120%; ††† denotes activity >120% but ≤140%; †††† denotes activity >160%.

[1] = target: T2, purified Hemoglobin S (HbS) (Homo sapiens, UniProt P68871+P69905, E7V); assay: Modulation of hemoglobin oxygen affinity: oxygen equilibrium curves (HEMOX) in purified HbS; assay type: biochemical, human (homozygous sickle cell patients); settings: compound at 30 μM; 25 μM purified HbS, 45 min at 37° C.
T2 construct: HbS was purified by a modified procedure; from tissue; host or cells: blood of homozygous sickle cell patients (CHORI); for the polymerization assay purified by the CRO VIRUSYS
How it was run: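 HbS from homozygous sickle cell patient blood, 25 μM in HEMOX buffer pH 7.4, incubated 45 min at 37° C with compound (30 μM unless noted). Air-saturated then deoxygenated with N2; p50 from Hill fit; delta p50% = (control p50 − treated p50)/control p50 × 100.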

HbS/A = target: T3, HbS/A (Homo sapiens, UniProt P68871+P69905, E7V); assay: R/T assay (relaxed-to-tense transition under deoxygenated conditions); assay type: biochemical, human (homozygous sickle cell patients); settings: 3 μM HbS/A, % R remaining vs no treatment
T3 construct: A mixture of HbS/A was purified from blood; from tissue; host or cells: blood of homozygous sickle cell patients (CHORI)
How it was run: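 Purified HbS/A (3 μM final) incubated 1 hr at 37° C with compounds (3 μM to 100 μM) in potassium phosphate buffer pH 7.4 with 30 μM DPG, then deoxygenated under N2 with 300–700 nm spectra every 5 min for 2 hours. Delta R is % R state retained versus untreated, by linear regression over all wavelengths.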

Cl.O=Cc1ccncc1OCc1ccc(C(=O)O)cn1
melting point: 192 to 194 °C

O=Cc1ccc(CO)o1 [Compound 5HMF, 5-hydroxymethyl-2-furfuraldehyde]
hemoglobin modulator activity (hemoglobin): potent hemoglobin modulator both in vitro and in vivo
survival times (human HbS; extreme hypoxia (5% oxygen)): significantly improved survival times
hypoxia-induced sickled red blood cells (human HbS; hypoxic conditions, compared to the non-treated mice): reduced amounts of hypoxia-induced sickled red blood cells

CC(C)n1nccc1-c1ncccc1COc1cccnc1C=O [Compound 176, 3-((2-(1-isopropyl-1H-pyrazol-5-yl)pyridin-3-yl)methoxy)picolinaldehyde]
delta p50% Values for Whole Blood Assay (whole blood): +++ (a delta p50% of 50 or greater)
% delta Delay (purified HBS): † (activity ≥40% but ≤80%)
delta p50% [1]: +++ (a delta p50% of 50 or greater)
delta R (HbS/A; compound at 9 μM): + (a delta R of between 0 and 30)

Cc1ccc(OCc2cccnc2-c2ccnn2C(C)C)c(C=O)n1 [Compound 177, 3-((2-(1-isopropyl-1H-pyrazol-5-yl)pyridin-3-yl)methoxy)-6-methylpicolinaldehyde]
delta p50% Values for Whole Blood Assay (whole blood): +++ (a delta p50% of 50 or greater)
% delta Delay (purified HBS): † (activity ≥40% but ≤80%)
delta p50% [1]: +++ (a delta p50% of 50 or greater)
delta R (HbS/A; compound at 3 μM): + (a delta R of between 0 and 30)

CC(C)n1nccc1-c1ncccc1COc1cnc(OC(F)F)cc1C=O [Compound 178, 2-(difluoromethoxy)-5-((2-(1-isopropyl-1H-pyrazol-5-yl)pyridin-3-yl)methoxy)isonicotinaldehyde]
delta p50% Values for Whole Blood Assay (whole blood): ++ (a delta p50% of between 30 and 50)
% delta Delay (purified HBS): † (activity ≥40% but ≤80%)
delta p50% [1]: ++ (a delta p50% of between 30 and 50)
delta R (HbS/A; compound at 9 μM): + (a delta R of between 0 and 30)

COCCOc1cc(C=O)c(OCc2cccnc2-c2ccnn2C(C)C)cn1 [Compound 180, 5-((2-(1-isopropyl-1H-pyrazol-5-yl)pyridin-3-yl)methoxy)-2-(2-methoxyethoxy)isonicotinaldehyde]
delta p50% Values for Whole Blood Assay (whole blood): +++ (a delta p50% of 50 or greater)
% delta Delay (purified HBS): † (activity ≥40% but ≤80%)
delta p50% [1]: +++ (a delta p50% of 50 or greater)
delta R (HbS/A; compound at 30 μM): ++ (a delta R of between 30 and 50)

COc1cc(C=O)c(OCc2nccnc2-c2ccnn2C(C)C)cn1 [Compound 181, 5-((3-(1-isopropyl-1H-pyrazol-5-yl)pyrazin-2-yl)methoxy)-2-methoxyisonicotinaldehyde]
delta p50% Values for Whole Blood Assay (whole blood): +++ (a delta p50% of 50 or greater)
% delta Delay (purified HBS): ††† (activity >120% but ≤140%)
delta p50% [1]: +++ (a delta p50% of 50 or greater)
delta R (HbS/A; compound at 9 μM): + (a delta R of between 0 and 30)

CC(C)n1nccc1-c1ncccc1COc1cncc(O)c1C=O [Compound 186, 3-hydroxy-5-((2-(1-isopropyl-1H-pyrazol-5-yl)pyridin-3-yl)methoxy)isonicotinaldehyde]
delta p50% Values for Whole Blood Assay (whole blood): +++ (a delta p50% of 50 or greater)
% delta Delay (purified HBS): †††† (activity >160%)
delta p50% [1]: +++ (a delta p50% of 50 or greater)
delta R (HbS/A; compound at 30 μM): +++ (a delta R of 50 or greater)

O=Cc1c(O)cncc1OCc1ccccc1 [Compound 187, 3-(benzyloxy)-5-hydroxyisonicotinaldehyde]
delta p50% Values for Whole Blood Assay (whole blood): + (a delta p50% of between 0 and 29)
% delta Delay (purified HBS): †† (activity >80% but ≤120%)
delta p50% [1]: ++ (a delta p50% of between 30 and 50)
delta R (HbS/A; compound at 9 μM): +++ (a delta R of 50 or greater)

COc1cc(C=O)c(OCc2cccnc2-c2ccnn2C2CCC2)cn1 [Compound 195, 5-((2-(1-cyclobutyl-1H-pyrazol-5-yl)pyridin-3-yl)methoxy)-2-methoxyisonicotinaldehyde]
delta p50% Values for Whole Blood Assay (whole blood): +++ (a delta p50% of 50 or greater)
% delta Delay (purified HBS): ††† (activity >120% but ≤140%)
delta p50% [1]: +++ (a delta p50% of 50 or greater)
delta R (HbS/A; compound at 30 μM): +++ (a delta R of 50 or greater)

COc1cc(C=O)c(OCc2cccnc2-c2ccnn2CC2CCCCC2)cn1 [Compound 197, 5-((2-(1-(cyclohexylmethyl)-1H-pyrazol-5-yl)pyridin-3-yl)methoxy)-2-methoxyisonicotinaldehyde]
delta p50% Values for Whole Blood Assay (whole blood): +++ (a delta p50% of 50 or greater)
% delta Delay (purified HBS): † (activity ≥40% but ≤80%)
delta p50% [1]: ++ (a delta p50% of between 30 and 50)
delta R (HbS/A; compound at 9 μM): + (a delta R of between 0 and 30)

COc1cc(C=O)c(OCc2cccnc2-c2ccnn2C2CCCC2)cn1 [Compound 198, 5-((2-(1-cyclopentyl-1H-pyrazol-5-yl)pyridin-3-yl)methoxy)-2-methoxyisonicotinaldehyde]
delta p50% Values for Whole Blood Assay (whole blood): +++ (a delta p50% of 50 or greater)
% delta Delay (purified HBS): † (activity ≥40% but ≤80%)
delta p50% [1]: +++ (a delta p50% of 50 or greater)
delta R (HbS/A; compound at 30 μM): ++ (a delta R of between 30 and 50)

COc1cc(C=O)c(OCc2cccnc2-c2ccnn2CC(=O)O)cn1 [Compound 199, 2-(5-(3-((4-formyl-6-methoxypyridin-3-yloxy)methyl)pyridin-2-yl)-1H-pyrazol-1-yl)acetic acid]
delta p50% Values for Whole Blood Assay (whole blood): + (a delta p50% of between 0 and 29)
% delta Delay (purified HBS): ††† (activity >120% but ≤140%)
delta p50% [1]: +++ (a delta p50% of 50 or greater)
delta R (HbS/A; compound at 9 μM): + (a delta R of between 0 and 30)

COc1cc(C=O)c(OCc2cccnc2-c2ccnn2CCC(=O)O)cn1 [Compound 202, 3-(5-(3-(((4-formyl-6-methoxypyridin-3-yl)oxy)methyl)pyridin-2-yl)-1H-pyrazol-1-yl)propanoic acid]
delta p50% Values for Whole Blood Assay (whole blood): + (a delta p50% of between 0 and 29)
% delta Delay (purified HBS): ††† (activity >120% but ≤140%)
delta p50% [1]: +++ (a delta p50% of 50 or greater)
delta R (HbS/A; compound at 9 μM): + (a delta R of between 0 and 30)

CS(=O)(=O)NC(=O)c1ccc(COc2cnccc2C=O)nc1 [Compound 206, 2,2,2-trifluoroacetic acid:6-(((4-formylpyridin-3-yl)oxy)methyl)-N-(methylsulfonyl)nicotinamide (2:1)]
delta p50% Values for Whole Blood Assay (whole blood): +++ (a delta p50% of 50 or greater)
melting point: 102 to 104 °C
% delta Delay (purified HBS): ††† (activity >120% but ≤140%)
delta R (HbS/A; compound at 9 μM): + (a delta R of between 0 and 30)
